The source made the active and inactive calls. The rule behind the calls is not given here.
Experiments:
Mus musculus [1] = species: Mus musculus; assay: Tested for inhibitory activity against B lymphocyte proliferation induced by LPS at 10e-5 M; significantly potentiated the proliferation; assay type: functional
Mus musculus [2] = species: Mus musculus; assay: Tested for inhibitory activity against T lymphocyte proliferation induced by Con A at 10e-5 M; slightly suppressed the proliferation; assay type: functional
Mus musculus [3] = species: Mus musculus; assay: Tested for inhibitory activity against T lymphocyte proliferation induced by PHA; showed no suppressive effect; assay type: functional
Mus musculus [4] = species: Mus musculus; assay: Tested for inhibitory activity against B lymphocyte proliferation induced by LPS at 10e-5 M; significantly suppressed the proliferation; assay type: functional
Mus musculus [5] = assay: Tested for inhibitory activity against contact ear dermatitis in mice induced by dinitrofluorobenzene by consecutive oral administration in the primary sensitizing phase; showed inhibition; assay type: functional, organism-based
Rattus norvegicus [6] = assay: Tested for […] inhibitory activity against type 1 allergic reactions after oral administration; showed inhibition; assay type: functional, organism-based
Rattus norvegicus [7] = assay: Tested for in vivo inhibitory activity against asthmatic bronchoconstriction in rats induced by antigen-antibody reaction; showed inhibition; assay type: functional, organism-based
Rattus norvegicus [8] = assay: Tested for in vivo inhibitory activity against passive cutaneous anaphylaxis (PCA) reaction in rats; showed inhibition; assay type: functional, organism-based
Mus musculus [9] = species: Mus musculus; assay: Tested for inhibitory activity against T lymphocyte proliferation induced by Con A at 10e-6 to 10e-5 M; significantly suppressed the proliferation; assay type: functional
Mus musculus [10] = assay: Tested for inhibitory activity against hind paw edema sensitized with sheep red blood cells (SRBC) in both sensitizing and inflammatory phases after oral administration; showed reduction
Mus musculus [11] = species: Mus musculus; assay: Tested for inhibitory activity against B lymphocyte proliferation induced by LPS at 10e-7 M; suppressed the proliferation; assay type: functional
Mus musculus [12] = species: Mus musculus; assay: Tested for inhibitory activity against T lymphocyte proliferation induced by Con A at 10e-7 M; showed potent suppressive effect; assay type: functional
Mus musculus [13] = species: Mus musculus; assay: Tested for inhibitory activity against T lymphocyte proliferation induced by PHA at 10e-7 M; showed potent suppressive effect; assay type: functional

## O=C1OC(c2ccc(O)c(O)c2)Cc2cccc(O)c21 (stereo not drawn)
Mus musculus [1]
  Activity: no suppressive effect
Mus musculus [2]
  Activity: no suppressive effect
Mus musculus [3]
  Activity: no suppressive effect

## COc1ccc([C@H]2Cc3cccc(O)c3C(=O)O2)cc1O
Mus musculus [1]
  Activity: significantly potentiated the proliferation
Mus musculus [2]
  Activity: significantly potentiated the proliferation

## O=C1OC(c2ccc(O)cc2)Cc2cc(O)cc(O)c21 (stereo not drawn)
Mus musculus [1]
  Activity: no suppressive effect
Mus musculus [2]
  Activity: no suppressive effect
Mus musculus [3]
  Activity: no suppressive effect

## O=c1oc(-c2ccc(O)c(O)c2)cc2cccc(O)c12
Mus musculus [4]
  Activity: inhibition
Mus musculus [5]
  Activity: inhibition
Rattus norvegicus [6]
  Activity: inhibition
Rattus norvegicus [7]
  Activity: inhibition
Rattus norvegicus [8]
  Activity: inhibition
Mus musculus [9]
  Activity: inhibition
Mus musculus [10]
  Activity: inhibition

## O=C1OC(c2ccc(O)cc2)Cc2cccc(O)c21 (stereo not drawn)
Mus musculus [1]
  Activity: no suppressive effect
Mus musculus [3]
  Activity: no suppressive effect

## COc1ccc([C@H]2Cc3cc(O)cc(O)c3C(=O)O2)cc1O
Mus musculus [1]
  Activity: significantly potentiated the proliferation
Mus musculus [2]
  Activity: significantly potentiated the proliferation

## C[C@]12CCC(=O)C=C1CCC1[C@@H]2[C@@H](O)C[C@@]2(C)[C@H]1CC[C@]2(O)C(=O)CO (single isomer, unassigned)
Mus musculus [11]
  Activity: Active
Mus musculus [12]
  Activity: Active
Mus musculus [13]
  Activity: Active

## O=C1OC(c2ccc(O)c(O)c2)Cc2cc(O)cc(O)c21 (stereo not drawn)
Mus musculus [1]
  Activity: no suppressive effect
Mus musculus [2]
  Activity: no suppressive effect
Mus musculus [3]
  Activity: no suppressive effect

## O=C(O)c1c(O)cccc1/C=C/c1ccc(O)c(O)c1
Mus musculus [1]
  Activity: no suppressive effect
Mus musculus [3]
  Activity: no suppressive effect

## O=C1O/C(=C\c2ccc(O)c(O)c2)c2cccc(O)c21
Mus musculus [1]
  Activity: no suppressive effect
Mus musculus [3]
  Activity: no suppressive effect

## O=c1oc(-c2ccc(O)c(O)c2)cc2cc(O)cc(O)c12
Mus musculus [1]
  Activity: no suppressive effect
Mus musculus [3]
  Activity: no suppressive effect

## O=c1oc(-c2ccc(O)cc2)cc2cccc(O)c12
Mus musculus [1]
  Activity: no suppressive effect
Mus musculus [3]
  Activity: no suppressive effect

Reference: ChEMBL document CHEMBL1130730, “Immunomodulatory activity of thunberginol A and related compounds isolated from Hydrangeae Dulcis Folium on splenocyte proliferation activated by mitogens” (Bioorg Med Chem Lett, 1998)
